From patent US20130172360A1, “DERIVATIVES OF AZAINDAZOLE OR DIAZAINDAZOLE TYPE AS MEDICAMENT” (PIERRE FABRE MEDICAMENT, priority 2011, published 2013)

Key:
ALK [1] = target: T1, ALK (Homo sapiens, UniProt Q9UM73); test: Test for measuring inhibition of ALK kinase (GST-PLCγ1 substrate, anti-phosphotyrosine ELISA, luminescence); type: biochemical; conditions: 250 μM ATP, 30 minutes at 30° C.; read-out: Enzymatic inhibition of ALK (IC50)
Method: Test for Measuring Inhibition of ALK Kinase:
A ViewPlate microplate (Packard) is incubated with 0.1 mg/ml GST-PLCγ1 substrate (purified recombinant form) in phosphate buffer (PBS, pH 7.4) (100 μl/well) for one hour under stirring. The plate is then saturated with blocking solution comprising 5% bovine serum albumin (BSA) (Sigma) in PBS buffer, pH 7.4.
After having added a compound according to the invention to the desired final concentration (typical range between 30 μM and 10 nM), the reaction is carried out by adding 180 ng/ml ALK to a reaction buffer comprised of 13 mM Tris, pH 7.5 (Sigma); 6.5 mM MgCl2 (Merck); 0.65 mM dithiothreitol (DTT) (Acros); 39 mM sodium ([…] (TCI); 0.65 mM sodium orthovanadate (Sigma); and 250 μM ATP (Sigma). Incubation is carried out for 30 minutes at 30° C. under stirring.
After three washings under stirring in 0.1% PBS/Tween-20 buffer (Sigma), an anti-phosphotyrosine antibody, coupled with HRP (UBI) diluted to 1/1000 in 5 mg/ml PBS/BSA buffer, is incubated for one hour with stirring. After three new washings in 0.1% PBS/Tween-20, the wells are incubated for two minutes with […] of SuperSignal ELISA mixture (Pierce).
The signal is read in luminescence mode using a luminometer (SpectraMax M5e, Molecular Devices).
IC50s are determined by nonlinear regression on the basis of a sigmoidal dose/response relationship model, wherein the Hill coefficient is left variable, carried out on the GraphPad software package according to the algorithm provided.

[2] = test system: Karpas 299 cells (human anaplastic large-cell lymphoma); test: Test for measuring inhibition of cell (Karpas 299) proliferation (ATPlite); type: cell-based; conditions: 72 hours
Method: Test for Measuring Inhibition of Cell (Karpas 299) Proliferation:
The antiproliferative activities of the compounds according to the invention were measured by the ATPlite technique (Perkin Elmer).
Nonadherent human anaplastic large-cell lymphoma cells (Karpas 299) are inoculated in 96-well plates (300,000 cells/ml) at day 1, at a concentration compatible with logarithmic growth for the 72 hours required for the evaluation of the compounds. All of the cells are treated at day 1 and then placed in an incubator at 37° C. under an atmosphere of 5% CO2. Cell viability is evaluated at day 4 by assaying released ATP, which is characteristic of viable cells. IC50s are determined by nonlinear regression on the basis of a sigmoidal dose/response relationship model, wherein the Hill coefficient is left variable, carried out on the GraphPad software package according to the algorithm provided.

[3] = test system: human anaplastic large-cell lymphoma (ALCL) tumor model; test: In vivo antitumor activity, ALCL tumors grafted subcutaneously in mice, oral daily dosing; conditions: mice with subcutaneous ALCL tumors, daily schedule; for adverse effects: animals weighed several times per week; for inhibition of ALCL tumor growth: corresponds to complete regression of the tumors
Method: Pharmacological Activity In Vivo
The compounds were administered orally at various doses on a daily schedule to mice with ALCL tumors grafted subcutaneously. Tumor size was measured regularly during the study and the animals were weighed several times per week in order to identify any adverse effects. A compound is declared active if it induces inhibition of ALCL tumor growth by at least 58%.

ALK [4] = target: T1, ALK; test: Inhibition of a panel of kinases (Millipore): ALK; type: biochemical; conditions: Millipore kinase panel; read-out: Enzyme inhibition (IC50, nM) ALK
Description: (§1) Test for Measuring Inhibition of a Panel of Kinases:
(§2) These kinases are produced by Millipore and are screened according to the manufacturer's protocols.

Abl = target: T2, Abl (Homo sapiens, UniProt P00519); test: Inhibition of a panel of kinases (Millipore): Abl; type: biochemical; conditions: Millipore kinase panel; read-out: Enzyme inhibition (IC50, nM) Abl
T2 construct: purchased Millipore
Description: as §1, §2

c-Src = target: T3, c-Src (Homo sapiens, UniProt P12931); test: Inhibition of a panel of kinases (Millipore): c-Src; type: biochemical; conditions: Millipore kinase panel; read-out: Enzyme inhibition (IC50, nM) c-Src
T3 construct: purchased Millipore
Description: as §1, §2

T1 sequence (Q9UM73 19-1620): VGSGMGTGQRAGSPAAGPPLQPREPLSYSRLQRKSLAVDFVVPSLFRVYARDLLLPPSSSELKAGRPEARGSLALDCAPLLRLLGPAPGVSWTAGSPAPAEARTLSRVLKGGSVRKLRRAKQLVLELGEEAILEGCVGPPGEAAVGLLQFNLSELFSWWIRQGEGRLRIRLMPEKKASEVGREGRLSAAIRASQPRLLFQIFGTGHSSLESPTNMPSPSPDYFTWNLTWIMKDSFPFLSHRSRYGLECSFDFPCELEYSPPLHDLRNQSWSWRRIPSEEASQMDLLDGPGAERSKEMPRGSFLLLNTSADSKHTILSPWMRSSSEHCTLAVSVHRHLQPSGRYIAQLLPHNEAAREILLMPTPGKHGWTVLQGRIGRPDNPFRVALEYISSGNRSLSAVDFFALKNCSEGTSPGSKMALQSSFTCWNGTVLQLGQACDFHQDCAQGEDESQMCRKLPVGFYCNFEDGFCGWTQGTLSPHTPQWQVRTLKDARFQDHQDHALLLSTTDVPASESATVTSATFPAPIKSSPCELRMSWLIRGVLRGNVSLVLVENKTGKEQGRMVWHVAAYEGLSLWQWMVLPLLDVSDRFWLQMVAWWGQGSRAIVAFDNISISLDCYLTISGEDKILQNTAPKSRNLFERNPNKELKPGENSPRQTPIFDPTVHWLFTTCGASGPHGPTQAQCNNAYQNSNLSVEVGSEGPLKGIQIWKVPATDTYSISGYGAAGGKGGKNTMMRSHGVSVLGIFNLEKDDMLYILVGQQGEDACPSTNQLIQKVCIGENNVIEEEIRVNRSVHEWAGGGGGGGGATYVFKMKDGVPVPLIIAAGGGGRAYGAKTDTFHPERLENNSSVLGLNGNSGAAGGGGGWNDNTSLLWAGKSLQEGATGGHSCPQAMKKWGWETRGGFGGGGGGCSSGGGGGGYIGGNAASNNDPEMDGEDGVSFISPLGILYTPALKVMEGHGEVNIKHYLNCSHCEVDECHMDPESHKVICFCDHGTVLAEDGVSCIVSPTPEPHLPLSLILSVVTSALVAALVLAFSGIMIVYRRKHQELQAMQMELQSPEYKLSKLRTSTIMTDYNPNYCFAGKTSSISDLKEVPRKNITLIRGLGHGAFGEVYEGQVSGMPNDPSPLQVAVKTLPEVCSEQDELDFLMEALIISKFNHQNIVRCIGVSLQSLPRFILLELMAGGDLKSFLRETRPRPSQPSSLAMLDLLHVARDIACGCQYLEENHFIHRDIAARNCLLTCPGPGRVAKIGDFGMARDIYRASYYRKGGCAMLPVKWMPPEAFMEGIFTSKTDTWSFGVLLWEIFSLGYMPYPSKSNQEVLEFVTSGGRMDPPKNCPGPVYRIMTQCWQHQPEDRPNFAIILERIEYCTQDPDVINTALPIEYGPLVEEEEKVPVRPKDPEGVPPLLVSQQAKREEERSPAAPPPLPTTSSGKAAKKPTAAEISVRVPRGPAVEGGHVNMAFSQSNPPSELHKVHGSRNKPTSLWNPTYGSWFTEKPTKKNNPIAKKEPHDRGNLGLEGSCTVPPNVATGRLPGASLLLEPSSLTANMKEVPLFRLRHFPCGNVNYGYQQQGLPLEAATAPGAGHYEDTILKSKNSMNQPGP
T3 sequence (P12931 whole entry): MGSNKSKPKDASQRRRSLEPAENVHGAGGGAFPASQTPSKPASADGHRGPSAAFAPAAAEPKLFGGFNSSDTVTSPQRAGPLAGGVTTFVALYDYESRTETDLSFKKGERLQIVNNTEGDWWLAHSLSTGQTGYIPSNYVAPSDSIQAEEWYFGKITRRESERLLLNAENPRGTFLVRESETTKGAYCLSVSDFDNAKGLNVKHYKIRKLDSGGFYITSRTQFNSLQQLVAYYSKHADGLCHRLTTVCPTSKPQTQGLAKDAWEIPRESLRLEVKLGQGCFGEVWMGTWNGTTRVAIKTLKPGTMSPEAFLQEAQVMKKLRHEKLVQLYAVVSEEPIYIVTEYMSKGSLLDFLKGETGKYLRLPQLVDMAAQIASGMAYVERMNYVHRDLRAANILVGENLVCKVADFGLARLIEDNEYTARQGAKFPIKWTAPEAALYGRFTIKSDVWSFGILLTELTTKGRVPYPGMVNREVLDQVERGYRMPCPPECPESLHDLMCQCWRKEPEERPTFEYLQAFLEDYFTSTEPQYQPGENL
T2 sequence (P00519 whole entry, species assumed): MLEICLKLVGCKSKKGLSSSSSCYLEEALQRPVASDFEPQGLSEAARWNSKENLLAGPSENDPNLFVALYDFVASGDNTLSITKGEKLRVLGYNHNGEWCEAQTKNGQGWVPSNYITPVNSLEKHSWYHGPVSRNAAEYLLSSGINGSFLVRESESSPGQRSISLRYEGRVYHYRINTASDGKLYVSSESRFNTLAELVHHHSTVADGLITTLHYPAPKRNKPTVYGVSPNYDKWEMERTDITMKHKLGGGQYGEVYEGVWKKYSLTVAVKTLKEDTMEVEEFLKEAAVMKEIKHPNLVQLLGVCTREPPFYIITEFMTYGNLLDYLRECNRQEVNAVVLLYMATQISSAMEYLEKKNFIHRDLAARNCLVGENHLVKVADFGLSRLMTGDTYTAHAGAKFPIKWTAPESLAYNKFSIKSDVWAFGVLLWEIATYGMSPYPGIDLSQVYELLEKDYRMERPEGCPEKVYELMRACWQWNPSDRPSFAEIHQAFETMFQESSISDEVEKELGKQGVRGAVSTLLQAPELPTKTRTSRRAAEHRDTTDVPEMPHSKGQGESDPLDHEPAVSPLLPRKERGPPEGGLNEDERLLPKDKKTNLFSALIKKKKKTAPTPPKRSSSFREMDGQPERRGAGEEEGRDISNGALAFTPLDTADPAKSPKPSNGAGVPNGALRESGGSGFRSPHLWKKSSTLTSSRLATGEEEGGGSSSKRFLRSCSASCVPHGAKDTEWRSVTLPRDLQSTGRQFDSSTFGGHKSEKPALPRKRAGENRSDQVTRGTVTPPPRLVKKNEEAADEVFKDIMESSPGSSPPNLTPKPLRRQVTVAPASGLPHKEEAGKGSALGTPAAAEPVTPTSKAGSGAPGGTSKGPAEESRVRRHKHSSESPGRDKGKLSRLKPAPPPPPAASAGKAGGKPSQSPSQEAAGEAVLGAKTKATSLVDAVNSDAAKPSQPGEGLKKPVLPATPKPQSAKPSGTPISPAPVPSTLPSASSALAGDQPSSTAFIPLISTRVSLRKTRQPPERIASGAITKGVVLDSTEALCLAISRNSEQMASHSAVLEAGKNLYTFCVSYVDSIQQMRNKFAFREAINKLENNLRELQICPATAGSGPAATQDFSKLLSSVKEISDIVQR

SMILES | IC50 (ALK [1]) | IC50 [2] | adverse effects [3] | inhibition of ALCL tumor growth [3] | IC50 (ALK [4]) | IC50 (Abl) | IC50 (c-Src)
CN1CCN(c2ccc(CNc3n[nH]c4ncc(Sc5cc(F)cc(F)c5)cc34)cc2)CC1 [Example 28, 5-(3,5-difluorophenylthio)-N-(4-(4-methylpiperazin-1-yl)benzyl)-1H-pyrazolo[3,4-b]pyridin-3-amine] | 36 nM |  |  |  |  |  | 
CN1CCN(c2ccc(C(=O)Nc3n[nH]c4ncc(Sc5cc(F)cc(F)c5)cc34)c(NC3CCOCC3)c2)CC1 [Example 30, N-(5-(3,5-difluorophenylthio)-1-H-pyrazolo[3,4-b]pyridine-3-yl)-4-(4-methylpiperazine-1-yl)-2-(tetrahydro-2H-pyran-4-ylamino)benzamide] | 1 nM | 160 nM | no adverse effects | 100% | 7 nM | 18 nM | 4 nM
CN1CCN(c2ccc(C(=O)Nc3n[nH]c4ncc(Sc5ccccc5C(N)=O)cc34)c(NC3CCOCC3)c2)CC1 [Example 30-1, N-(5-(2-carbamoylphenylthio)-1H-pyrazolo[3,4-b]pyridin-3-yl)-4-(4-methylpiperazin-1-yl)-2-(tetrahydro-2H-pyran-4-ylamino)benzamide] | 20 nM | 2200 nM |  |  |  |  | 
COc1nc2[nH]nc(NC(=O)c3ccc(N4CCN(C)CC4)cc3NC3CCOCC3)c2cc1Sc1cc(F)cc(F)c1 [Example 30-5, N-(5-(3,5-difluorophenylthio)-6-methoxy-1H-pyrazolo[3,4-b]pyridin-3-yl)-4-(4-methylpiperazin-1-yl)-2-(tetrahydro-2H-pyran-4-ylamino)benzamide] | 66 nM | 2600 nM |  |  |  |  | 
CN1CCN(c2ccc(C(=O)Nc3n[nH]c4ncc(Cc5cc(F)cc(F)c5)cc34)c(NC3CCOCC3)c2)CC1 [Example 30-9, N-(5-(3,5-difluorobenzyl)-1H-pyrazolo[3,4-b]pyridin-3-yl)-4-(4-methylpiperazin-1-yl)-2-(tetrahydro-2H-pyran-4-ylamino)benzamide] | 1 nM |  | no adverse effects | 100% | 15 nM | 38 nM | 9 nM
CN1CCN(c2ccc(C(=O)Nc3n[nH]c4ncc(CCc5cc(F)cc(F)c5)cc34)c(NC3CCOCC3)c2)CC1 [Example 31, N-(5-(3,5-difluorophenethyl)-1H-pyrazolo[3,4-b]pyridin-3-yl)-4-(4-methylpiperazin-1-yl)-2-(tetrahydro-2H-pyran-4-ylamino)benzamide] | 17 nM | 830 nM |  |  |  |  | 
